Measured values: ChEMBL document CHEMBL1201862, “PubChem BioAssay data set” (2004)
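Cultured in 96-well plates, cells were exposed to test compound for 48 hours across five concentrations. GI50: concentration for 50% inhibition of growth.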 The source made the active and inactive calls. No stated cut-off is given here; in the data, active = GI50 up to about 1.1 µM and inactive = higher.

Experiments:
Test in all cases: NCI tumour cell line growth inhibition, 48 h
[1] = test system: HOP-62
[2] = test system: NCI-H460
[3] = test system: PC-3
[4] = test system: OVCAR-8
[5] = test system: ACHN
[6] = test system: 786-0
[7] = test system: M14
[8] = test system: SNB-75
[9] = test system: NCI-H23
[10] = test system: MDA-N
[11] = test system: UACC-62
[12] = test system: MDA-MB-435
[13] = test system: MOLT-4
[14] = test system: SK-OV-3
[15] = test system: HT-29
[16] = test system: MCF7
[17] = test system: Malme-3M
[18] = test system: HCT-116
[19] = test system: KM12
[20] = test system: U-251

Measured: GI50

O=S(=O)(c1ccccc1)[C@H]1[C@@H]2O[C@@H]2C[C@@H]1O
inactive: [1] > 100 µM | [2] > 100 µM | [3] > 100 µM | [4] > 100 µM | [5] > 100 µM | [6] > 100 µM | [7] > 100 µM | [8] 47.4 µM | [9] > 100 µM | [10] > 100 µM | [11] > 100 µM | [12] > 100 µM | [13] > 100 µM | [14] > 100 µM | [15] > 100 µM | [16] > 100 µM | [17] > 100 µM | [18] > 100 µM | [19] > 100 µM | [20] > 100 µM
